Source: patent US11312719B2, “9-substituted amino triazolo quinazoline derivatives as adenosine receptor antagonists, pharmaceutical compositions and their use” (Merck Sharp & Dohme Corp., priority 2018, dated 2022)

What was measured:
[1] = biological target: human A2a adenosine receptor (Homo sapiens (Human), UniProt P29274); test: A2a receptor affinity radioligand binding assay ([3H] SCH58261); settings: membranes from HEK293 or CHO cells expressing human A2a receptor
Method in brief: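 IC50 values come from 4-parameter logistic fits of filter-bound radioactivity, normalized to total (1% DMSO) and nonspecific (1 μM ZM241385) binding. Recombinant human A2a membranes (HEK293 or CHO) were exposed to compound for 15–30 min, then to [3H]SCH58261 (4 nM working dilution) for 60 min at room temperature in Tris pH 7.4/MgCl2/Tween20 buffer.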

[2] = biological target: human A2b adenosine receptor (Homo sapiens (Human), UniProt P29275); test: A2b radioligand filtration binding assay; settings: for IC50: membranes from HEK293 cells expressing human A2b receptor
Chain of human A2b adenosine receptor (P29275 whole entry): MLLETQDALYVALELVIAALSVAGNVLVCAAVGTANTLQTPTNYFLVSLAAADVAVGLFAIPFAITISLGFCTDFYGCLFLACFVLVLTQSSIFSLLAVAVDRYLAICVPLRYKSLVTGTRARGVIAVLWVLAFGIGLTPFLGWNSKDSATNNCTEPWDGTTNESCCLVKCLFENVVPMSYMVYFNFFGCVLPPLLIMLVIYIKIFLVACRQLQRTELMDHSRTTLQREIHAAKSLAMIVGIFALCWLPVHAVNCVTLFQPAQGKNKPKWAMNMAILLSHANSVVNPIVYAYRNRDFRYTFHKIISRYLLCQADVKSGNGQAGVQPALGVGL
Method in brief: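 Displacement of a tritiated A2b antagonist (working solution 14 nM) from human A2b receptor membranes of recombinant HEK293 cells, in Mg/Ca-free PBS pH 7.4, 60 min at room temperature after 15 to 30 min compound preincubation. Filtered, counted; normalized to total and 20 μM NECA non-specific binding; IC50 from logistic fit.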

Chain of human A2a adenosine receptor (P29274 whole entry): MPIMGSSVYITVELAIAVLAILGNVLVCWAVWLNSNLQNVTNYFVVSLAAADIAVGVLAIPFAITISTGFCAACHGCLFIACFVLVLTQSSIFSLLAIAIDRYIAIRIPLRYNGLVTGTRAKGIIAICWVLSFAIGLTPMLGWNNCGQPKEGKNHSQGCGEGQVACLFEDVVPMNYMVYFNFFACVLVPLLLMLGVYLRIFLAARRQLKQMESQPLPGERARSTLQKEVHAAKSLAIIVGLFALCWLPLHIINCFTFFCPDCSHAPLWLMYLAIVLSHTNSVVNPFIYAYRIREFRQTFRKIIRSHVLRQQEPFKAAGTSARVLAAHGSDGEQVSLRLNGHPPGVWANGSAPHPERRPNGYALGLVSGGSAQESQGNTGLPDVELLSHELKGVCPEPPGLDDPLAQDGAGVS

## COc1cc2nc(N)n3nc([C@@H]4CC[C@H](C)N(c5cnn(CC(C)(C)O)c5)C4)nc3c2cc1F [Example 109, 1-(4-((2S,5R)-5-(5-amino-9-fluoro-8-methoxy-[1,2,4]triazolo[1,5-c]quinazolin-2-yl)-2-methylpiperidin-1-yl)-1H-pyrazol-1-yl)-2-methylpropan-2-ol]
[1]
  IC50: 0.7 nM
[2]
  IC50: 7.8 nM

## COc1cc2nc(N)n3nc(C4CCC(C)N(c5cnn(C6CCCC6O)c5)C4)nc3c2cc1F (single isomer, unassigned) [Example 89, (1S or 1R,2S or 2R)-2-(4-((2S,5R or 2R,5S)-5-(5-amino-9-fluoro-8-methoxy-[1,2,4]triazolo[1,5-c]quinazolin-2-yl)-2-methylpiperidin-1-yl)-1H-pyrazol-1-yl)cyclopentan-1-ol]
[1]
  IC50: 0.2 nM
[2]
  IC50: 3.4 nM

## COc1cc2nc(N)n3nc([C@@H]4CCCN(c5cn(C)nn5)C4)nc3c2cc1F [Example 6, (R)-9-fluoro-8-methoxy-2-(1-(1-methyl-1H-1,2,3-triazol-4-yl)piperidin-3-yl)-[1,2,4]triazolo[1,5-c]quinazolin-5-amine]
[1]
  IC50: 2 nM
[2]
  IC50: 85.9 nM

## COc1cc(F)cc2c1nc(N)n1nc([C@@H]3CCCN(c4ncn(CC(C)(C)O)n4)C3)nc21 [Example 36, (R)-1-(3-(3-(5-amino-9-fluoro-7-methoxy-[1,2,4]triazolo[1,5-c]quinazolin-2-yl)piperidin-1-yl)-1H-1,2,4-triazol-1-yl)-2-methylpropan-2-ol]
[1]
  IC50: 1.6 nM
[2]
  IC50: 93 nM

## COc1cc(F)cc2c1nc(N)n1nc(C3CCC(C)N(c4cnn(CC(C)(C)O)c4)C3)nc21 (single isomer, unassigned) [Example 118, 1-(4-((2R or 2S,5R or 5S)-5-(5-amino-9-fluoro-7-methoxy-[1,2,4]triazolo[1,5-c]quinazolin-2-yl)-2-methylpiperidin-1-yl)-1H-pyrazol-1-yl)-2-methylpropan-2-ol]
[1]
  IC50: 1.9 nM
[2]
  IC50: 387 nM

## COc1cc2nc(N)n3nc([C@@H]4CCCN(c5cnn(C(C)(C)C)c5)C4)nc3c2cc1F [Example 3, (R)-2-(1-(1-(tert-butyl)-1H-pyrazol-4-yl)piperidin-3-yl)-9-fluoro-8-methoxy-[1,2,4]triazolo[1,5-c]quinazolin-5-amine]
[1]
  IC50: 1.5 nM
[2]
  IC50: 180 nM

## COc1cc2nc(N)n3nc(C4CCC(C)N(c5cnn(C(C)(C)CO)c5)C4)nc3c2cc1F (single isomer, unassigned) [Example 127, 2-(4-((2R or 2S,5R or 5S)-5-(5-amino-9-fluoro-8-methoxy-[1,2,4]triazolo[1,5-c]quinazolin-2-yl)-2-methylpiperidin-1-yl)-1H-pyrazol-1-yl)-2-methylpropan-1-ol]
[1]
  IC50: 120 nM
[2]
  IC50: 1160 nM

## CCn1cc([C@]2(O)CCC[C@@H](c3nc4c5cc(F)c(OC)cc5nc(N)n4n3)C2)cn1 (single isomer, unassigned) [Example 148, (1S or 1R,3R or 3S)-3-(5-amino-9-fluoro-8-methoxy-[1,2,4]triazolo[1,5-c]quinazolin-2-yl)-1-(1-ethyl-1H-pyrazol-4-yl)cyclohexan-1-ol]
[1]
  IC50: 385 nM
[2]
  IC50: 4430 nM

## Cc1cc(Cl)cc2c1nc(N)n1nc(C3CCCN(c4cnn(C)c4)C3)nc21 (single isomer, unassigned) [Example 105, (R or S)-9-chloro-7-methyl-2-(1-(1-methyl-1H-pyrazol-4-yl)piperidin-3-yl)-[1,2,4]triazolo[1,5-c]quinazolin-5-amine]
[1]
  IC50: 329 nM
[2]
  IC50: 743 nM

## Cn1cc(N2CCC[C@@H](c3nc4c5cc(Cl)cc(Cl)c5nc(N)n4n3)C2)cn1 [Example 113, (R)-7,9-dichloro-2-(1-(1-methyl-1H-pyrazol-4-yl)piperidin-3-yl)-[1,2,4]triazolo[1,5-c]quinazolin-5-amine]
[1]
  IC50: 58.1 nM
[2]
  IC50: 470 nM

## COc1cc(F)cc2c1nc(N)n1nc(C3CC(F)CN(c4cn(CC(C)(C)O)nc4C)C3)nc21 (single isomer, unassigned) [Example 76, 1-(4-((3R,5R or 3S,5S)-3-(5-amino-9-fluoro-7-methoxy-[1,2,4]triazolo[1,5-c]quinazolin-2-yl)-5-fluoropiperidin-1-yl)-3-methyl-1H-pyrazol-1-yl)-2-methylpropan-2-ol]
[1]
  IC50: 256 nM
[2]; @ 10000 nM
  A2B binding % Inh. @ 10000 nM: 34% Inh.

## CCn1cc([C@]2(O)CCC[C@@H](c3nc4c5cc(F)c(OC)cc5nc(N)n4n3)C2)cn1 (single isomer, unassigned) [Example 149, (1S or 1R,3R or 3S)-3-(5-amino-9-fluoro-8-methoxy-[1,2,4]triazolo[1,5-c]quinazolin-2-yl)-1-(1-ethyl-1H-pyrazol-4-yl)cyclohexan-1-ol]
[1]
  IC50: 1.8 nM
[2]
  IC50: 96.6 nM

## COc1cc(F)cc2c1nc(N)n1nc([C@@H]3C[C@@H](F)CN(c4cnn(CC(C)(C)O)c4)C3)nc21 (single isomer, unassigned) [Example 74, 1-(4-((3R,5R or 3S,5S)-3-(5-amino-9-fluoro-7-methoxy-[1,2,4]triazolo[1,5-c]quinazolin-2-yl)-5-fluoropiperidin-1-yl)-1H-pyrazol-1-yl)-2-methylpropan-2-ol]
[1]
  IC50: 0.9 nM
[2]
  IC50: 153 nM

## COc1cc2nc(N)n3nc(C4CN(c5cn(CC(C)(C)O)nc5C)CCS4(=O)=O)nc3c2cc1F (single isomer, unassigned) [Example 143, (S or R)-2-(5-amino-9-fluoro-8-methoxy-[1,2,4]triazolo[1,5-c]quinazolin-2-yl)-4-(1-(2-hydroxy-2-methylpropyl)-3-methyl-1H-pyrazol-4-yl)thiomorpholine 1,1-dioxide]
[1]
  IC50: 984 nM
[2]
  IC50: 7560 nM

## C[C@H]1CC[C@@H](c2nc3c4cc(F)c(Cl)cc4nc(N)n3n2)CN1c1cnn(CC(C)(C)O)c1 [Example 110, 1-(4-((2S,5R)-5-(5-amino-8-chloro-9-fluoro-[1,2,4]triazolo[1,5-c]quinazolin-2-yl)-2-methylpiperidin-1-yl)-1H-pyrazol-1-yl)-2-methylpropan-2-ol]
[1]
  IC50: 0.2 nM
[2]
  IC50: 1.8 nM

## COc1cc2nc(N)n3nc(C4CCC(C)N(c5cnn(C(C)(C)CO)c5)C4)nc3c2cc1F (single isomer, unassigned) [Example 128]
[1]
  IC50: 0.3 nM
[2]
  IC50: 2.4 nM

## COc1cc(F)cc2c1nc(N)n1nc([C@H]3CC[C@@H](C)N(c4cn(CC(C)(C)O)nc4C)C3)nc21 (single isomer, unassigned) [Example 117, 1-(4-((2R or 2S,5S or 5R)-5-(5-amino-9-fluoro-7-methoxy-[1,2,4]triazolo[1,5-c]quinazolin-2-yl)-2-methylpiperidin-1-yl)-3-methyl-1H-pyrazol-1-yl)-2-methylpropan-2-ol]
[1]
  IC50: 0.2 nM
[2]
  IC50: 13 nM

## COc1cc(F)cc2c1nc(N)n1nc([C@@H]3CCCN(c4cnn(CC5(O)CCC5)c4)C3)nc21 [Example 31, (R)-1-((4-(3-(5-amino-9-fluoro-7-methoxy-[1,2,4]triazolo [1,5-c]quinazolin-2-yl)piperidin-l-yl)-1H-pyrazol-1-yl)methyl)cyclobutan-1-ol]
[1]
  IC50: 1.7 nM
[2]
  IC50: 94.8 nM

## COc1cc2nc(N)n3nc(C4(F)CCN(c5cnn(CC(C)(C)O)c5)C4)nc3c2cc1F (single isomer, unassigned) [Example 62, (R or S)-1-(4-(3-(5-amino-9-fluoro-8-methoxy-[1,2,4]triazolo[1,5-c]quinazolin-2-yl)-3-fluoropyrrolidin-1-yl)-1H-pyrazol-1-yl)-2-methylpropan-2-ol]
[1]
  IC50: 146 nM
[2]
  IC50: 383 nM
